Reference: patent US20130197028A1, “nAChRalpha7 Agonists and nAChRalpha7 Antagonists for Treating Ulcerative Colitis (UC) and Crohn's Disease (CD)” (priority 2010, published 2013)
“Also recorded” adds a separate entry of the source. Like-named read-outs stand apart in the source and are kept apart here.

Experiments:
DSS-induced colitis = type: in vivo, mice; details: for effect on UC-like colitis (overall statement): mouse IBD model, acute/chronic not specified
Protocol: (§1) In an acute model, mice were treated with or without nAChRα7 agonist drug for five days. DSS were then given for seven days. Clinical activity scores were assessed. In a chronic model, mice were given DSS for seven days followed by seven days water. These DSS-water cycles were repeated three more times continuously. […] At this point, nAChRα7 agonist was given in one set of mice and all mice were followed for eleven days. […] The arrow indicates the start (day 53) of nAChRα7 agonist treatment in the chronic model;
(§2) For CD-like mouse model, BALB/c mice were used for the induction of DSS colitis. For CD-like mouse model, BALB/c mice were used for the induction of TNBS-colitis. C57/B6 or BALB/c mice, 6-8 weeks old, were pretreated (daily peritoneal injection) for one week with either nicotine (a non-specific ligand of nAChRα7; 6 mg/kg) or a nAChRα7-specific agonist (PNU; 8.3 mg/kg). Controls were mice without the pre-treatments (a total of >10 mice in each treatment group). The mice were then induced to develop either CD-like colitis with TNBS (600 μg) or UC-like colitis with DSS (2.5%).

[1] = system: chronic TNBS-induced colitis; type: in vivo, mice
[2] = system: Immortalized (EBV-transformed) B lymphocytes of patients with UC, CD, and unaffected controls
Ulcerative colitis (UC) = details: human, in vivo; cited from earlier work
TNBS-induced colitis = type: in vivo, mice; details: for effect on CD-like colitis (overall statement): mouse IBD model, acute/chronic not specified; for disease activity (DAI), acute TNBS-colitis: mouse, in vivo
From the text: C57BL/6. Mice were pretreated either with PBS (control), or nicotine, PNU (α7 agonist), or MLA drug by peritoneal injection once daily for five days. Mice were then induced to develop colitis for seven days with either TNBS (in 50% ethanol) or 50% ethanol alone as a control. Disease activity of all mice was monitored daily.
as §2

chronic DSS colitis = test: Chronic UC-like DSS colitis, therapeutic treatment; type: in vivo, mice; details: four DSS-water cycles, treatment from day 53, followed eleven days
Protocol: as §1
Induction of chronic UC-like colitis was described in the legends of FIG. 6.

[3] = system: DSS-induced colitis of nAChRα7 deficient mice; details: mouse, in vivo
Protocol: (§3) Wild type (WT) nAChRα7 deficient (nAChRα7 knockout; α7KO) mice, both in C57B/6 background, were induced to develop colitis, either with DSS (A) or TNBS (B). […] N≧6 per group;
(§4) To exclude this possibility, nAChRα7 agonist and antagonist were tested on nAChRα7-knockout mice (nAChRα7-KO), in which development of chemically-induced colitis will not be affected by the agents if they are only specific to nAChRα7.

[4] = system: TNBS-induced colitis of nAChRα7 deficient mice; details: mouse, in vivo
Protocol: as §3, §4

[5] = system: Gpx1/2-double knockout (DKO) mice ileocolitis; test: GPX 1/2 DKO colitis; type: in vivo; details: administered once signs of colitis were evident
Protocol: Clinical activity scores were assessed.
Once signs of colitis were immediately evident, both nAChRα7 agonists and nAChRα7 antagonists were administered to Gpx1/2-DKO mice.

[6] = at the dose used in the preclinical studies
From the text: (§5) Other studies of these nAChRα7-specific drugs, including toxicity and pharmacokinetics, are being investigated.

[7] = system: mouse behavior (immobility); details: DSS-induced colitis mice, IP agonist
Protocol: Tests were carried out on mice forced to swim in a cylindrical container for six minutes. Mice were divided into four groups: (a) control; (b) mice receiving IP agonist; (c) mice induced with DSS; and (d) mice receiving IP agonist and induced with DSS (n=6 in each group). The total duration of immobility in a container with 13 cm of water at 25° C. was scored. Immobility was defined when the mouse stopped struggling and remained floating motionless in the water, making only those movements necessary to keep its head above water. Day 0 and Day 7 indicate the days of DSS treatment.
as §5

[8] = treatment of established chronic colitis

SMILES	disease activity (DAI), acute DSS-colitis (DSS-induced colitis; mouse, in vivo)	disease activity (DAI), chronic TNBS-colitis ([1]; mouse, in vivo)	anti-inflammatory cytokine IL-10 production [2]	cytokine/chemokine changes, agent by itself [2]	production of proinflammatory cytokine/chemokine IL-8 and MIP-1 [2]	clinical efficacy in UC (Ulcerative colitis (UC))	effect on CD-like colitis (overall statement) (TNBS-induced colitis)	disease activity (DAI), acute TNBS-colitis (TNBS-induced colitis)	effect on UC-like colitis (overall statement) (DSS-induced colitis)	potency compared with nicotine in preventing DSS-induced UC-like colitis (DSS-induced colitis; mouse, in vivo)	disease activity (clinical activity score), chronic DSS colitis (chronic DSS colitis)	disease activity (DAI), chronic TNBS-colitis [1, 8]	therapeutic effect on DSS-induced colitis in nAChRα7KO mice [3]	therapeutic effect on TNBS-induced colitis in nAChRα7KO mice [4]	colitis clinical activity score, GPX 1/2 DKO mice [5]	adverse effect on mice [6]	appearance of major organs (heart, kidney, liver, small and large intestines, spleen) [6]	immobility of DSS-mice in forced swim test [7]
CN1CCCC1c1cccnc1 (stereo not drawn) [nicotine]	prevents the development; also recorded: prevents DSS-induced UC-like colitis; also recorded: effective in preventing UC-like DSS-colitis	no significant effect	significant inhibition	insignificant cytokine/chemokine changes	significant production	significant clinical efficacy	–	–	–	–	–	–	–	–	–	–	–	–
O=C(N[C@H]1CN2CCC1CC2)c1ccc(Cl)cc1 [PNU, N-[(3R)-1-azabicyclo[2.2.2]oct-3-yl]-4-chlorobenzamide]	prevents DSS-induced UC-like colitis; also recorded: preventing DSS-induced colitis; also recorded: essentially eliminated the inflammation; also recorded: effectively prevent	–	–	–	–	–	worsened CD-like colitis	greatly worsens; also recorded: worsens the disease; also recorded: either no therapeutic benefit, even worsening disease activity	highly effective therapeutics for UC-like colitis	slightly more potent	effectively reverse the disease course; also recorded: essentially eliminated the inflammation	no significant effect	neither agonist (PNU) nor antagonist (MLA) was efficacious; also recorded: no effect at all	neither agonist (PNU) nor antagonist (MLA) was efficacious; also recorded: no effect at all	highly effective in treating colitis	no adverse effect	look normal by appearance	completely reversed the immobility
CCN1C[C@]2(COC(=O)c3ccccc3N3C(=O)C[C@H](C)C3=O)CC[C@H](OC)[C@@]34[C@@H]5C[C@H]6[C@H](OC)[C@@H]5[C@](O)(C[C@@H]6OC)[C@@](O)([C@@H](OC)[C@H]23)[C@@H]14 [MLA, methyllycaconitine]	–	–	–	–	–	–	highly effective therapeutic agent for CD-like colitis	efficiently prevent; also recorded: preventing acute TNBS-colitis; also recorded: essentially disappeared; also recorded: effectively prevent	has no effect on UC-like colitis	–	–	highly therapeutic effect; also recorded: effectively reverses the disease course	–	–	–	–	–	–
COc1ccc(/C=C2\CCCN=C2c2cccnc2)c(OC)c1 [GTS-21, 3-(2,4-dimethoxybenzylidene) anabaseine]	similarly effect of preventing development; also recorded: preventing DSS-induced colitis	–	–	–	–	–	worsened CD-like colitis	–	highly effective therapeutics for UC-like colitis	–	effectively reverse the disease course	–	–	–	–	–	–	–
